In patent US20240342190A1, “METHODS FOR REDUCING ISCHEMIA-REPERFUSION INJURIES” (BioMimetix JV, LLC, priority 2023, published 2024):
Entries after “also recorded” stand apart in the source; their conditions may differ.

Legend:
[1] = tested on: young female Wistar rats subjected to 90 min of MCAO (ischemic stroke); test: Experiment 2: long-term stroke outcome in young female rats; assay type: in vivo, rat; settings: for Neurologic score: median±IQR, p=0.04 vs vehicle
Experimental: (§1) The rats were fasted overnight for glucose control. On the surgery day, they were anesthetized with 5% isoflurane in 30% oxygen balanced with nitrogen. The trachea was orally intubated, and both lungs were mechanically ventilated to maintain normocapnia. Isoflurane was reduced to 1.5% during the surgical procedure. A 22-gauge needle thermistor was percutaneously inserted beneath the temporalis muscle adjacent to the skull. The pericranial temperature was maintained at 37.0° C.±0.2° C. by a surface heat lamp. The tail artery was cannulated with PE 50 tubing (BD Intramedic™ Polyethylene Tubing, Sparks, MD, USA), and arterial blood pressure was continuously monitored. 50 IU of heparin was given via arterial line to prevent intra-arterial thrombosis. Arterial blood samples were collected pre, during, and after ischemia for blood gas, glucose, and hematocrit measurements.
(§2) Ischemic stroke was induced by transiently occluding the middle cerebral artery (MCAO) as previously reported.^23,24 Briefly, a midline cervical incision was made and the right common carotid artery […] was identified. The external and internal carotid arteries were dissected. […] The internal carotid artery (ICA) was dissected distally until the origin of the pterygopalatine artery was visualized. After surgical preparation, a 10 min interval was allowed for physiologic stabilization. […] The common carotid artery was re-opened, and a timer was started as the onset of cerebral ischemia.
(§3) After 90 min of MCAO, the filament was removed and a PE-10 tube (BD Intramedic™ Polyethylene Tubing, Sparks, MD, USA) was inserted into the ICA beyond the origin of the pterygopalatine artery. The vehicle or BMX-001 (30-50 μg/kg) solution (1 μl/g for both solutions, 250 μl for the 250 g rat) was slowly infused for 5 minutes via syringe pump. At the completion of intra-carotid infusion, the PE tube was removed and the ECA stump was permanently ligated. The tail artery catheter was removed and both the neck incision and tail incision were infiltrated with bupivacaine and closed with suture. Isoflurane was discontinued. Rats were disconnected from the ventilator when they attained spontaneous respiration and kept in a recovery cage. The tracheas were extubated after recovery of the righting reflex. They were in an O2 enriched environment (30% O2) for 1 h and then returned to the home cage.
(§4) Post-stroke neurologic deficits were assessed at day 7 and 28 using a standardized neurological scoring system.^27,28 General status, simple motor deficit, complex motor deficit, and sensory deficit were evaluated, including the ability of walking on a beam and climbing on the vertical screen. The total score each animal received was the sum of all four individual scores (0-48, 0=normal and 48=the worst score).
Upon the completion of functional tests, the animals were weighed, anesthetized with isoflurane, and decapitated. The brains were harvested, frozen at −20° C. in 2-methylbutane on dry ice, and stored in a −80° C. freezer. Serial quadruplicate 20-μm-thick coronal sections were cut using a Leica cryostat and mounted on the slides at 720-μm interval over the rostral-caudal extent of the brain. The sections were dried on a slide heater at 36° C., and stained with hematoxylin and eosin. […] The area in each ROI (mm^2) was determined by automated counting of calibrated pixels and the volume (mm^3) was computed by the known interval between sections over the rostral-caudal extent of brain. […]

[2] = tested on: young male spontaneously hypertensive rats (SHR) subjected to 90 min of MCAO; test: Experiment 4: stroke outcome in young spontaneously hypertensive rats; assay type: in vivo, rat; settings: for Neurologic score: median±IQR
Experimental: as §1, §2, §3, §4
(§5) Upon the completion of functional tests, the animals were weighed, anesthetized with isoflurane, and decapitated. The brains were harvested, frozen at −20° C. in 2-methylbutane on dry ice, and stored in a −80° C. freezer. Serial quadruplicate 20-μm-thick coronal sections were cut using a Leica cryostat and mounted on the slides at 720-μm interval over the rostral-caudal extent of the brain. The sections were dried on a slide heater at 36° C., and stained with hematoxylin and eosin. A section from each […] interval was digitized with a video camera controlled by an image analyzer (MCID, the MicroComputer Imaging Device, Imaging Research Inc, St. Catharines, Ontario, Canada). […] With the observer blinded to the experimental condition, the following regions of interest (ROI) were outlined individually using an operator-controlled cursor, including non-infarcted ipsilateral cerebral cortex, non-infarcted ipsilateral subcortex, contralateral cerebral cortex, and contralateral subcortex. The area in each ROI (mm^2) was determined by automated counting of calibrated pixels and the volume (mm^3) was computed by the known interval between sections over the rostral-caudal extent of brain. […]

[3] = tested on: young male Wistar rats subjected to 90 min of MCAO (ischemic stroke); test: Experiment 1: acute stroke outcome after 90 min MCAO, intracarotid BMX-001 then subcutaneous for 7 days; assay type: in vivo, rat
Experimental: as §1, §2, §3, §4, §5

[4] = Experiment 8: interaction of BMX-001 with t-PA (blood clot dissolution); design: species or system rat; settings: blood clot dissolution, t-PA vs t-PA plus BMX-001
Experimental: Fresh arterial blood samples were collected from young male rats and distributed into 21 pre-weighed centrifuge tubes. After sitting at 37° C. for 3 hours, the blood clots were formed. The supernatant was removed from these tubes and then the tubes with blood clots were weighed. The weight of the blood clot was calculated (=the tube with blood clot-pre-weighed tube). Then, 1 ml saline, t-PA (1 mg/ml) or t-PA (1 mg/ml) plus BMX-001 (50 μg/ml) were added (n=7 for each group) and tubes placed in 37° C. dry incubator for 3 hours. The liquids were then removed from the tubes. The tubes with remaining blood clots were weighed again. The percentage of blood clot dissolved by t-PA was calculated.

blood brain barrier = test: Experiment 7: blood brain barrier permeability after intracarotid infusion (Evans blue content); settings: non-stroke rats, vs vehicle
Experimental: 30 μg/kg of BMX-001 (n=4), or same amount of saline (n=4) or mannitol (n=4) was given to normal male Wistar rats through the carotid artery. The rats received 100 μl 2% Evans blue intravenous infusion 30 min later and then intracardially perfused using 100 ml normal saline at 30 min following infusion. Brains were harvested and the Evans blue content was measured spectrophotometrically.

[5] = tested on: brain tissues and vessels (vascular endothelial wall); test: Experiment 7: body weight and brain/vascular histology after intracarotid infusion; settings: non-stroke rats; 3 days after intracarotid infusion; H&E
Experimental: 30 μg/kg of BMX-001 (n=4), or same amount of saline (n=4) or Solu-Medrol (n=4) was given to normal Wistar rats through the carotid artery. Rats were recovered for 3 days and perfused intracardially with normal saline followed by 10% formalin. Brains were paraffin embedded, cut, and stained with hematoxylin and eosin. Vascular histologic damage was assessed.

CCCCOCC[n+]1ccccc1C1=C2C=CC3=[N+]2[Mn]24[n]5c1ccc5C(c1cccc[n+]1CCOCCCC)=C1C=CC(=[N+]12)C(c1cccc[n+]1CCOCCCC)=c1ccc([n]14)=C3c1cccc[n+]1CCOCCCC [BMX-001, MnTnBuOE-2-PyP^5+] showed a Neurologic score ([1]; 7 days post-stroke) of 11±7, a Neurologic score ([1]; 28 days post-stroke) of 7±6 and an Infarct volume ([1]; 28 days post-stroke, p=0.38 vs vehicle) of 157.378 ±63.699 mm^3. For the same compound, the “Neurologic score (FIG. 2, Panel A), in words” value ([1]; day 7 and day 28 compared to the vehicle group) was “better neurologic score”, the “Infarct volumes (FIG. 2, Panel B), in words” value ([1]; day 28, no intragroup difference was detected) was “smaller” and the MAP ([2]; 10 minutes post-stroke, SHR rats) was 83 ± 11 mmHg. For the same compound, the “Infarct volume (FIG. 4, Panel C), in words” value ([2]; 28 days) was “no intra-group difference”, the Subcortex infarct volume ([2]; 28 days, p=0.14) was 51±23 mm^3 and the Total infarct volume ([2]; 28 days, p=0.21) was 179±51 mm^3. It also gave a Cortex infarct volume ([2]; 28 days, p=0.37) of 128±37 mm^3, a Neurologic score ([2]; day 7, p=0.05 vs vehicle) of 14±8 and a Neurologic score ([2]; day 28, p=0.018 vs vehicle) of 9.5±6.25. The “Neurological deficits (FIG. 4, Panel B), in words” value ([2]; day 28 post-stroke) was “significantly improved”, the “Rats survived for 28 days” value ([2]; of n=15, three BMX-001 rats died at 8, 9 and 10 days after stroke) was 12 and the “Perioperative blood pressure (FIG. 1, Panel A), in words” value ([3]; 5 min vs 45 min post-treatment) was “lower blood pressure”. For the same compound, the Perioperative blood pressure ([3]; 10 minutes post-ischemia, after 30 μg/kg intracarotid BMX-001, p=0.04 vs vehicle) was 75±4 mmHg, the Body weight ([3]; 24 hours post-stroke) was 252±9 grams and the “Post-stroke body weight recovery (FIG. 1, Panel B), in words” value ([3]; body weight at 7 Days vs 24 hours, p=0.02) was “promoted post-stroke body weight recovery”. The “Infarct volume (FIG. 1, Panel D), in words” value ([3]; day 7 post-stroke) was “significantly improved”, the “Neurologic scores (FIG. 1, Panel C), in words” value ([3]; day 7 post-stroke) was “significantly improved” and the Body weight ([3]; day 7 post-stroke, p=0.02 vs 24 hours) was 279±9 grams. The Subcortex infarct ([3]; day 7 post-stroke, p=0.02 vs vehicle) was 38.964 ±8.892 mm^3, the Total infarct ([3]; day 7 post-stroke, p=0.04 vs vehicle) was 89.097±48.424 mm^3 and the Cortex infarct ([3]; day 7 post-stroke, p=0.07 vs vehicle) was 49.864±42.899 mm^3. The Neurologic score ([3]; post-stroke day 7, score 0-48 (0=normal), median±IQR, p<0.01 vs vehicle) was 4±3.5, the “Interaction of BMX-001 with t-PA, in words” value [4] was “does not React with t-PA” and the “Evans blue content in brain / blood brain barrier permeability, in words” value (blood brain barrier) was “only somewhat higher Evans blue content; also recorded: did not affect the BBB”. The “Brain histology / vascular histologic damage, in words” value [5] was “normal; also recorded: no histologic damage”.
